Source: US20120015925A1, “NOVEL BENZOTHIAZEPINE AND BENZOTHIEPINE COMPOUNDS” (ASAHI KASEI PHARMA CORPORATION, priority 2004, published 2012)

What follows are molecules tested against T1, human IBAT (Homo sapiens, UniProt Q12908) (assay: In vitro assay using Cos 7 cells, transiently expressed human IBAT). Details: [3H]-taurocholate 8 μM uptake, 37° C., 60 minutes.
T1 sequence (Q12908 1-348): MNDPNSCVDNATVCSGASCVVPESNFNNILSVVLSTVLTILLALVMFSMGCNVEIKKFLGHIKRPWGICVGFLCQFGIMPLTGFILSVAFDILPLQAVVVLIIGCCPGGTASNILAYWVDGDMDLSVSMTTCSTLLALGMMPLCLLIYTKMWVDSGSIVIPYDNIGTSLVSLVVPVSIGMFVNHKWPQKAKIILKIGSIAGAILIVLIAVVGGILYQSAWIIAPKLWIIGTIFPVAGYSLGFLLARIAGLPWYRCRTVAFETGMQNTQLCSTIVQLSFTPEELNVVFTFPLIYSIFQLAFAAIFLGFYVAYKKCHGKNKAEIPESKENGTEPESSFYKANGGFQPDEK
Assay type: cell-based
Method in brief: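 Cos 7 cells transfected with human or rat IBAT cDNA were assayed one day later in Hanks buffer with 25 mM glucose and 10 mM HEPES (pH 7.4) containing compound. [^3H]-taurocholate (8 μM final) uptake ran 60 min at 37° C. Cells were washed with 1 mM taurocholate, lysed in NaOH, and counted by liquid scintillation.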

Compound | IC50 [nM]
CCCCC1(CCCC)CS(=O)(=O)c2ccc(N(C)C)cc2C(c2cccc(NC(=S)Nc3ccc(C[n+]4ccc(CC)cc4)cc3)c2)N1.[Br-] (centres unmarked) [EXAMPLE 3710] | 52
CCCCC1(CCCC)CS(=O)(=O)c2ccc(N(C)C)cc2C(c2cccc(NC(=S)Nc3ccc(C[n+]4ccc5ccccc5c4)cc3)c2)N1.[Br-] (centres unmarked) [EXAMPLE 3783] | 48
CCCCC1(CCCC)CS(=O)(=O)c2ccc(N(C)C)cc2C(c2cccc(NC(=S)CCCCC[N+](C)(C)Cc3ccccc3)c2)N1.[Br-] (centres unmarked) [EXAMPLE 3835] | 43
CCCCC1(CCCC)CS(=O)(=O)c2ccc(N(C)C)cc2C(c2cccc(NC(=S)CCCCC[N+]34CCC(c5ccccc5)(CC3)CC4)c2)N1.[Br-] (centres unmarked) [EXAMPLE 3853] | 28
CCCCC1(CCCC)CS(=O)(=O)c2ccc(N(C)C)cc2C(c2cccc(NC(=S)CCCCCCC[N+]34CCC(CC3)CC4)c2)N1.[Br-] (centres unmarked) [EXAMPLE 3932] | 36
CCCCC1(CCCC)CS(=O)(=O)c2ccc(N(C)C)cc2C(c2cccc(NC(=S)Nc3ccc(C[N+]45CCC(c6ccccc6)(CC4)CC5)c(F)c3)c2)N1.[Br-] (centres unmarked) [EXAMPLE P343] | 16
CCCCC1(CCCC)CS(=O)(=O)c2ccc(N(C)C)cc2C(c2cccc(NC(=S)Nc3ccc(C[N+]45CCC(c6ccccc6)(CC4)CC5)cc3Br)c2)N1.[Br-] (centres unmarked) [EXAMPLE P346] | 19

The molecules below were run on Caco-2 cell (assay: Gastrointestinal toxicity: cytotoxicity against Caco-2 cell (LDH activity)). Details: 3 μM, 2 hours; LDH activity in medium relative to cell lysis agent = 100%.
Assay type: cell-based, human
Description: That is, 10,000 cells/well of Caco-2 cells (purchased from ATCC) were seeded in a 96-well plate [MEM-E medium, 10% FBS (Fetal Bovine Serum), 1% NEAA (Non Essential Amino Acid) solution, supplied from Gibco]. After culturing for 48 hours, the test compound diluted with the medium was added to each well. After 2 hours, 50 μL of the medium was collected, and an LDH activity in the medium was measured using an LDH activity measurement kit (CytoTox96 Non-Radioactive Cytotoxicity Assay, supplied from Promega). Defining the LDH activity of the Caco-2 cells treated with a cell lysis agent as being 100%, the relative activity was calculated as a index of the cytotoxicity.

Compound | CELL TOXICITY AGAINST Caco2 3 μM [%]
CCCCC1(CCCC)CS(=O)(=O)c2ccc(N(C)C)cc2C(c2cccc(NC(=S)Nc3ccc(C[n+]4ccc(CC)cc4)cc3)c2)N1.[Br-] (centres unmarked) [EXAMPLE 3710] | <1
CCCCC1(CCCC)CS(=O)(=O)c2ccc(N(C)C)cc2C(c2cccc(NC(=S)Nc3ccc(C[n+]4ccc5ccccc5c4)cc3)c2)N1.[Br-] (centres unmarked) [EXAMPLE 3783] | <1
CCCCC1(CCCC)CS(=O)(=O)c2ccc(N(C)C)cc2C(c2cccc(NC(=S)CCCCC[N+](C)(C)Cc3ccccc3)c2)N1.[Br-] (centres unmarked) [EXAMPLE 3835] | <1
CCCCC1(CCCC)CS(=O)(=O)c2ccc(N(C)C)cc2C(c2cccc(NC(=S)CCCCC[N+]34CCC(c5ccccc5)(CC3)CC4)c2)N1.[Br-] (centres unmarked) [EXAMPLE 3853] | <1

Same assay, conditions: 10 μM, 2 hours; LDH activity in medium relative to cell lysis agent = 100%

Compound | CELL TOXICITY AGAINST Caco2 10 μM [%]
CCCCC1(CCCC)CS(=O)(=O)c2ccc(N(C)C)cc2C(c2cccc(NC(=S)Nc3ccc(C[n+]4ccc(CC)cc4)cc3)c2)N1.[Br-] (centres unmarked) [EXAMPLE 3710] | <1
CCCCC1(CCCC)CS(=O)(=O)c2ccc(N(C)C)cc2C(c2cccc(NC(=S)Nc3ccc(C[n+]4ccc5ccccc5c4)cc3)c2)N1.[Br-] (centres unmarked) [EXAMPLE 3783] | <1
CCCCC1(CCCC)CS(=O)(=O)c2ccc(N(C)C)cc2C(c2cccc(NC(=S)CCCCC[N+](C)(C)Cc3ccccc3)c2)N1.[Br-] (centres unmarked) [EXAMPLE 3835] | <1
CCCCC1(CCCC)CS(=O)(=O)c2ccc(N(C)C)cc2C(c2cccc(NC(=S)CCCCC[N+]34CCC(c5ccccc5)(CC3)CC4)c2)N1.[Br-] (centres unmarked) [EXAMPLE 3853] | <1
CCCCC1(CCCC)CS(=O)(=O)c2ccc(N(C)C)cc2C(c2cccc(NC(=S)Nc3ccc(C[N+]45CCC(c6ccccc6)(CC4)CC5)c(F)c3)c2)N1.[Br-] (centres unmarked) [EXAMPLE P343] | <1
CCCCC1(CCCC)CS(=O)(=O)c2ccc(N(C)C)cc2C(c2cccc(NC(=S)Nc3ccc(C[N+]45CCC(c6ccccc6)(CC4)CC5)cc3Br)c2)N1.[Br-] (centres unmarked) [EXAMPLE P346] | <1

Same assay, conditions: 30 μM, 2 hours; LDH activity in medium relative to cell lysis agent = 100%

Compound | CELL TOXICITY AGAINST Caco2 30 μM [%]
CCCCC1(CCCC)CS(=O)(=O)c2ccc(N(C)C)cc2C(c2cccc(NC(=S)Nc3ccc(C[n+]4ccc(CC)cc4)cc3)c2)N1.[Br-] (centres unmarked) [EXAMPLE 3710] | <1
CCCCC1(CCCC)CS(=O)(=O)c2ccc(N(C)C)cc2C(c2cccc(NC(=S)Nc3ccc(C[n+]4ccc5ccccc5c4)cc3)c2)N1.[Br-] (centres unmarked) [EXAMPLE 3783] | <1
CCCCC1(CCCC)CS(=O)(=O)c2ccc(N(C)C)cc2C(c2cccc(NC(=S)CCCCC[N+](C)(C)Cc3ccccc3)c2)N1.[Br-] (centres unmarked) [EXAMPLE 3835] | <1
CCCCC1(CCCC)CS(=O)(=O)c2ccc(N(C)C)cc2C(c2cccc(NC(=S)CCCCC[N+]34CCC(c5ccccc5)(CC3)CC4)c2)N1.[Br-] (centres unmarked) [EXAMPLE 3853] | <1
CCCCC1(CCCC)CS(=O)(=O)c2ccc(N(C)C)cc2C(c2cccc(NC(=S)Nc3ccc(C[N+]45CCC(c6ccccc6)(CC4)CC5)c(F)c3)c2)N1.[Br-] (centres unmarked) [EXAMPLE P343] | <1
CCCCC1(CCCC)CS(=O)(=O)c2ccc(N(C)C)cc2C(c2cccc(NC(=S)Nc3ccc(C[N+]45CCC(c6ccccc6)(CC4)CC5)cc3Br)c2)N1.[Br-] (centres unmarked) [EXAMPLE P346] | <1

Each molecule was assayed on rats dosed cholic acid (assay: Lowering effect on bile acid concentrations in portal vein blood in rats dosed cholic acid). Details: 0.1 mg/kg oral with cholic acid 200 mg/kg; portal vein serum total bile acid 2 hours after; control = 100%; surfactant HCO-60 (##).
Assay type: in vivo, rat
Description: In the present Test Example, a lowering effect on bile acid concentrations in portal vein blood in rats dosed cholic acid was evaluated according to the method described in Jpn. Pharmacol. Ther., Vol. 24 Supplement, 1996, 103(S-577)-110(S-584).
That is, SD (IGS) strain male rats at 7 to 9 weeks of age were fasted one day before the administration date. […] The blood was collected from the portal vein 2 hours after the forced oral administration, and a total bile acid value in serum was measured to examine the effect of the test compound (n=6). As a control, another group (n=6) merely received cholic acid (200 mg/kg), to which the same procedure was applied. The cholic acid value was measured using the commercially available kit (brand name: Total Bile Acid-Test Wako, supplied form Wako Pure Chemical Industries). Defining the value in the control group to which no test compound had been administered as being 100%, a reduction rate (%) of the bile acid value when a certain amount of the test compound had been administered was calculated.

Compound | BILE ACID REDUCTION RATE (%) IN RAT MODEL WITH CHOLIC ACID LOADING [%]
CCCCC1(CCCC)CS(=O)(=O)c2ccc(N(C)C)cc2C(c2cccc(NC(=S)Nc3ccc(C[n+]4ccc(CC)cc4)cc3)c2)N1.[Br-] (centres unmarked) [EXAMPLE 3710] | 20
CCCCC1(CCCC)CS(=O)(=O)c2ccc(N(C)C)cc2C(c2cccc(NC(=S)Nc3ccc(C[n+]4ccc5ccccc5c4)cc3)c2)N1.[Br-] (centres unmarked) [EXAMPLE 3783] | 16

Same assay, conditions: 0.1 mg/kg oral; surfactant HCO-60 0.1%; cholic acid 200 mg/kg; portal vein blood 2 hours after administration

Compound | BILE ACID REDUCTION RATE (%) IN RAT MODEL WITH CHOLIC ACID LOADING [%]
CCCCC1(CCCC)CS(=O)(=O)c2ccc(N(C)C)cc2C(c2cccc(NC(=S)CCCCC[N+]34CCC(c5ccccc5)(CC3)CC4)c2)N1.[Br-] (centres unmarked) [EXAMPLE 3853] | 36

Same assay, conditions: 0.1 mg/kg oral; surfactant Tween 20 0.05%; cholic acid 200 mg/kg; portal vein blood 2 hours after administration

Compound | BILE ACID REDUCTION RATE (%) IN RAT MODEL WITH CHOLIC ACID LOADING [%]
CCCCC1(CCCC)CS(=O)(=O)c2ccc(N(C)C)cc2C(c2cccc(NC(=S)CCCCC[N+](C)(C)Cc3ccccc3)c2)N1.[Br-] (centres unmarked) [EXAMPLE 3835] | 23
CCCCC1(CCCC)CS(=O)(=O)c2ccc(N(C)C)cc2C(c2cccc(NC(=S)CCCCCCC[N+]34CCC(CC3)CC4)c2)N1.[Br-] (centres unmarked) [EXAMPLE 3932] | 30

The molecules below were run against T2, rat IBAT (Rattus norvegicus, UniProt Q62633) (assay: In vitro assay using Cos 7 cells, transiently expressed rat IBAT). Details: [3H]-taurocholate 8 μM uptake, 37° C., 60 minutes.
T2 sequence (Q62633 1-348): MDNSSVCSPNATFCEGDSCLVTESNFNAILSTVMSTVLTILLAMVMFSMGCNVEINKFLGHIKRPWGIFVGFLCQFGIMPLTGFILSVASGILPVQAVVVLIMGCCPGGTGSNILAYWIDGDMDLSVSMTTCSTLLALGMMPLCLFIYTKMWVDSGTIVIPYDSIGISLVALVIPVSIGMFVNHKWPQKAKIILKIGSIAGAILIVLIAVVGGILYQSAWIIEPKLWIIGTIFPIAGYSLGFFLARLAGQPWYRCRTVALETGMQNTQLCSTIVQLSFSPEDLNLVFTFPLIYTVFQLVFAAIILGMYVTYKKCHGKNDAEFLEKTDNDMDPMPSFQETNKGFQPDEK
Assay type: cell-based
Description: In the present Test Example, an in vitro assay of compounds using Cos 7 cells as to inhibitory activity on transiently expressed human IBAT or rat IBAT transporter was performed according to the method described in Am. J. Physiol., 274, G157-169.
That is, […] cells/well of Cos 7 cells were seeded in a 24-well plate, and after one day, the cells were transfected with 0.3 μg/well of cDNA of human IBAT or rat IBAT using FuGENE6 (supplied from Roche). After culturing for one day after the transfection, the cells were washed once with the assay buffer, i.e., Hanks buffer containing 25 mM glucose and 10 mM HEPES (pH 7.4). The assay buffer was then replaced with the assay buffer containing the test compound. [^3H]-Taurocholate at a final concentration of 8 μM was added thereto and incubated at 37° C. for 60 minutes so that [^3H]-taurocholate was taken into Cos 7 cells by the action of human IBAT or rat IBAT. The cells were washed twice with the assay buffer containing 1 mM taurocholate, and subsequently lysed with 0.2 M NaOH to stop the reaction. The cell lysate was added to 4 mL of liquid scintillation cocktail, which was then thoroughly vortexed. Then the radioactivity was measured using the liquid scintillation counter.

Compound | IC50 [nM]
CCCCC1(CCCC)CS(=O)(=O)c2ccc(N(C)C)cc2C(c2cccc(NC(=S)CCCCC[N+]34CCC(c5ccccc5)(CC3)CC4)c2)N1.[Br-] (centres unmarked) [EXAMPLE 3853] | 9
CCCCC1(CCCC)CS(=O)(=O)c2ccc(N(C)C)cc2C(c2cccc(NC(=S)CCCCCCC[N+]34CCC(CC3)CC4)c2)N1.[Br-] (centres unmarked) [EXAMPLE 3932] | 9
CCCCC1(CCCC)CS(=O)(=O)c2ccc(N(C)C)cc2C(c2cccc(NC(=S)Nc3ccc(C[N+]45CCC(c6ccccc6)(CC4)CC5)c(F)c3)c2)N1.[Br-] (centres unmarked) [EXAMPLE P343] | 5.5
CCCCC1(CCCC)CS(=O)(=O)c2ccc(N(C)C)cc2C(c2cccc(NC(=S)Nc3ccc(C[N+]45CCC(c6ccccc6)(CC4)CC5)cc3Br)c2)N1.[Br-] (centres unmarked) [EXAMPLE P346] | 6
